Experimental data as given in ChEMBL document CHEMBL1201862, “PubChem BioAssay data set” (2004).
Activity calls are given as the source filed them. Bridge positions count the residues as written; N and C are the ends. Square brackets hold non-standard residues; d marks the D form. Peptide text beside a SMILES is read from it. * marks the point of attachment. X1 = CCC(C)C(N)C1=NC(C(=O)*)CS1; dOrn = NCCC[C@@H](N)C(=O)O

Legend:
[1] = molecular target: T1, Endoribonuclease toxin MazF (Escherichia coli K-12, UniProt P0AE70); assay: activation of MazEF endoribonuclease cleavage – biochemical, fluorescence, single-stranded RNA substrate, uHTS hits, dose response (AID 588481); assay type: functional
T1 sequence (P0AE70 whole entry): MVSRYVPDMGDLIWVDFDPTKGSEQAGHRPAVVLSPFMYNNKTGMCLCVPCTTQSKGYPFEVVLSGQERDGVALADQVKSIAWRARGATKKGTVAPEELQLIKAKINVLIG

[2] = molecular target: T1, Endoribonuclease toxin MazF; assay: substrate-only fluorescence increase artefacts – biochemical, single-stranded RNase substrate, counter-screen for MazEF activator project, dose response (AID 588502); assay type: functional
[3] = molecular target: T2, Polyadenylate-binding protein 1 (Homo sapiens, UniProt P11940); assay: MLLE binding blockers, Cy5 peptide tracer – biochemical, fluorescence polarization, Cy5-PAM2 peptide, secondary, miRNA deadenylation inhibitor project, dose response (AID 602260); assay type: functional; conditions: read-out: IC50_Mean
[4] = molecular target: T2, Polyadenylate-binding protein 1; assay: MLLE domain peptide-binding blockers, IC50 – biochemical, fluorescence polarization, FITC-PAM2 peptide, dose response (AID 602259); assay type: functional; conditions: read-out: IC50_Mean
[5] = molecular target: DNA dC->dU-editing enzyme APOBEC-3G (Homo sapiens, UniProt Q9HC16); assay: inhibition of APOBEC3G ssDNA deamination – biochemical, fluorescence, single-stranded DNA substrate, SAR follow-up (AID 602136); assay type: functional; conditions: read-out: IC50_Mean
[6] = molecular target: DNA dC->dU-editing enzyme APOBEC-3A (Homo sapiens, UniProt P31941); assay: SAR analysis of small molecule inhibitors of APOBEC3A DNA Deaminase via a fluorescence-based single-stranded DNA deaminase assay.; assay type: functional; conditions: read-out: IC50_Mean
[7] = intracellular Trypanosoma cruzi inhibitors in host cells – cell-based, plate reader, cherry-pick samples, set 3, dose response (AID 651818); assay type: functional;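 also: compounds incubated with infected cells for about four days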
[8] = molecular target: Voltage-gated inwardly rectifying potassium channel KCNH2 (Homo sapiens, UniProt Q12809); conditions: Potency;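 also: confirmatory quantitative high-throughput screen measuring inhibition of hERG channel activity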
[9] = molecular target: Cytochrome P450 3A4 (Homo sapiens, UniProt P08684); conditions: Potency;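 also: confirmatory qHTS run detecting inhibitors and substrates of CYP3A4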
Cytochrome P450 3A4, sequence (P08684 whole entry): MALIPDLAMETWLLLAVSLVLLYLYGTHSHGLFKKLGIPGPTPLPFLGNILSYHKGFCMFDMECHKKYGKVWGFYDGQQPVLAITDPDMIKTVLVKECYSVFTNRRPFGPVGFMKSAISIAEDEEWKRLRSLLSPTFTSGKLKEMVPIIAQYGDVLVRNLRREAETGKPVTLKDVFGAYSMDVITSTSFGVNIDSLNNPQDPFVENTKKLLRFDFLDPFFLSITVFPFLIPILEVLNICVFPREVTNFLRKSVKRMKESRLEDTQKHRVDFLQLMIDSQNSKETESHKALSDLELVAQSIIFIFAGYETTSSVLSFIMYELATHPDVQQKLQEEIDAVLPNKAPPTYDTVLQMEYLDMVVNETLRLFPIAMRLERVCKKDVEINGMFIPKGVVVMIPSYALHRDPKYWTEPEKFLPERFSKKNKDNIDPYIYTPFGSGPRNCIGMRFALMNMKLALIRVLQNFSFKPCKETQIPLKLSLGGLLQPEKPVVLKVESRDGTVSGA

DNA dC->dU-editing enzyme APOBEC-3A, sequence (P31941 whole entry): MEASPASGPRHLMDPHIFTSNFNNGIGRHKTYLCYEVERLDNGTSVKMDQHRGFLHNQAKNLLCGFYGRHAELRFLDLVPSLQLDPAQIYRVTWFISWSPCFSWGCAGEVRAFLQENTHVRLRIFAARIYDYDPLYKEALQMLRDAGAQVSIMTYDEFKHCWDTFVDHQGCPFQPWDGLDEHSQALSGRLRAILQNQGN
DNA dC->dU-editing enzyme APOBEC-3G, sequence (Q9HC16 whole entry): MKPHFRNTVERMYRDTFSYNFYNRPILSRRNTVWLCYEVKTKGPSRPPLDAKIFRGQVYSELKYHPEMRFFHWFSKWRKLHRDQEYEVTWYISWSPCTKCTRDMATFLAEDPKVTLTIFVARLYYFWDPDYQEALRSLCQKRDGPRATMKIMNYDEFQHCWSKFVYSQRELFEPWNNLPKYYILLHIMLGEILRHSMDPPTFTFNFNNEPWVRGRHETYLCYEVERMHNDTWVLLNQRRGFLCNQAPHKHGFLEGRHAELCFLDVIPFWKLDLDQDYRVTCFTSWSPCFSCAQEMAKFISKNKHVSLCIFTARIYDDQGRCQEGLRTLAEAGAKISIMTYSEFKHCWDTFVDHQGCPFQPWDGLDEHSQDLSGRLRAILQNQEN
Voltage-gated inwardly rectifying potassium channel KCNH2, sequence (Q12809 whole entry): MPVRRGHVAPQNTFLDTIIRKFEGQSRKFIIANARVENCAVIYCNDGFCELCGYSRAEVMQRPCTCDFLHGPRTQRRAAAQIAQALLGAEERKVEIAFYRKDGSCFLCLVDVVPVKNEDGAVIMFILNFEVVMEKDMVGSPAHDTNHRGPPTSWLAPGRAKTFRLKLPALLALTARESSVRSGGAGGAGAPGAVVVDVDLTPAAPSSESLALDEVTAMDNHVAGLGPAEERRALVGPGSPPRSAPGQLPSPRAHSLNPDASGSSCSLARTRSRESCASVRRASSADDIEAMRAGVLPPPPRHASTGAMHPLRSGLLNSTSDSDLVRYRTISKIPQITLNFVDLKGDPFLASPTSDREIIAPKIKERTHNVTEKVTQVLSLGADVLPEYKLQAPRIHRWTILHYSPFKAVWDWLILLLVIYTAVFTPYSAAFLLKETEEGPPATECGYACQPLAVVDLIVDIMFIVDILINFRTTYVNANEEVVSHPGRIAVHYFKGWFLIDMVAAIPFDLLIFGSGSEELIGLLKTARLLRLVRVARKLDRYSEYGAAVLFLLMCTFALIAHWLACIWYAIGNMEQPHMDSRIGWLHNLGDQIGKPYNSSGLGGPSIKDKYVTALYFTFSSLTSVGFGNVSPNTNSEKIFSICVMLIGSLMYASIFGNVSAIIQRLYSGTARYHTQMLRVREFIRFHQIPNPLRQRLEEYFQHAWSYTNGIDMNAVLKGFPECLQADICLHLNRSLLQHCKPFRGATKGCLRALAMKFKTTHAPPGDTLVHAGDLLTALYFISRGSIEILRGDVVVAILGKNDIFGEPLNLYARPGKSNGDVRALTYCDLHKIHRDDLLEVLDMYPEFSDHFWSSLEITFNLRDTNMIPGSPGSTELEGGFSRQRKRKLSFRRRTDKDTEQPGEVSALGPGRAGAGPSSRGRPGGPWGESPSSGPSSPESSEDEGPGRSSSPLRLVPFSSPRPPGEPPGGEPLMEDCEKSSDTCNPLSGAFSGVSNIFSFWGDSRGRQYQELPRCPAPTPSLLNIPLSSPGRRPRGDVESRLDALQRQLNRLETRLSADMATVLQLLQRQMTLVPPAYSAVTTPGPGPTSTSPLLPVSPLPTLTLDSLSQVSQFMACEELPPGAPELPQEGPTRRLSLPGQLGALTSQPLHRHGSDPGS
T2 sequence (P11940 whole entry, the tested form may be a part): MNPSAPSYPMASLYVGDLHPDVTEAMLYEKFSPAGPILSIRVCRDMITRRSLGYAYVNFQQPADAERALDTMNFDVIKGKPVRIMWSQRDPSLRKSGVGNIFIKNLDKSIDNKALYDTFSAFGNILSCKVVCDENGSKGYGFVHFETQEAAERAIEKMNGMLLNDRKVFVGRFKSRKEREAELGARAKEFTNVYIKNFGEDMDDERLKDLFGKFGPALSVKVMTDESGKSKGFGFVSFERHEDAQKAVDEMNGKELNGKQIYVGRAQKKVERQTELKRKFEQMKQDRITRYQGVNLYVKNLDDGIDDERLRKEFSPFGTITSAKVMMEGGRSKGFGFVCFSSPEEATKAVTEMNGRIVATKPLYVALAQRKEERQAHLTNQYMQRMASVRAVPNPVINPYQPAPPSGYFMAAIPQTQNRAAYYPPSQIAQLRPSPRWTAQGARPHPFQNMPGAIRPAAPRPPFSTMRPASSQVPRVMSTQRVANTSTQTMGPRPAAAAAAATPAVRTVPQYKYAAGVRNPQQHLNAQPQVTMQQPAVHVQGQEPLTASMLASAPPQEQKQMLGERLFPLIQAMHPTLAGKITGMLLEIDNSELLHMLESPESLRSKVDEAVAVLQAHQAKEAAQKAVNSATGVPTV

Structure (SMILES) | IC50 [5] | IC50 [6] | AC50 [7] | further results
CCOc1ccc(/N=C/C=C(/O)c2ccc(OC)cc2)c([N+](=O)[O-])c1 |  |  |  | EC50 [1]: > 99 µM (inactive); EC50 [2]: 6.29 µM (active); IC50 [3]: > 66 µM (inactive); IC50 [4]: > 66 µM (inactive)
CCC(C(=O)Nc1nnc(SCCOC)s1)c1ccccc1 (stereo not drawn) | > 99 µM (inactive) | > 99 µM (inactive) |  | 
Cc1ccc(CC(=O)Nc2nnc(-c3ccncc3)s2)cc1 | > 99 µM (inactive) | > 99 µM (inactive) |  | 
CCc1ccc(Nc2nc(Nc3cccc(OC)c3)nc(N3CCOCC3)n2)cc1 | 47.7 µM (inactive) | > 99 µM (inactive) |  | 
Cc1ccc(S(=O)(=O)N(C)C[C@H]2Oc3ccc(NS(=O)(=O)c4cccs4)cc3CC(=O)N([C@H](C)CO)C[C@H]2C)cc1 |  |  | 2.05 µM (active) | 
COc1ccc(NC(=O)Nc2cccc3c2O[C@@H](CN(C)Cc2ccc(C(=O)Nc4ccccc4N)cc2)[C@H](C)CN([C@@H](C)CO)C3=O)cc1 |  |  | 0.535 µM (active) | 
COc1ccc(S(=O)(=O)Nc2cccc3c2O[C@H](CN(C)Cc2ccc(C(=O)Nc4ccccc4N)cc2)[C@@H](C)CN([C@H](C)CO)C3=O)cc1 |  |  | 4.11 µM (active) | 
CCC(C)C(N)C1=NC(C(=O)N[C@@H](CC(C)C)C(=O)N[C@H](CCC(=O)O)C(=O)N[C@H](C(=O)N[C@H]2CCCCNC(=O)[C@H](CC(N)=O)NC(=O)[C@@H](CC(=O)O)NC(=O)[C@H](Cc3c[nH]cn3)NC(=O)[C@@H](Cc3ccccc3)NC(=O)[C@H]([C@@H](C)CC)NC(=O)[C@@H](CCCN)NC2=O)[C@@H](C)CC)CS1 (stereo partly drawn) (X1-L[dE]IK[dOrn]I[dF]H[dD]N; lactam 4-C) |  |  |  | EC50 [1]: 30.8 µM (inactive); EC50 [2]: 4.71 µM (active)
CNC(=O)OCC[N+](C)(C)C [METHYLCARBAMYLCHOLINE CHLORIDE] |  |  |  | AC50 [8]: 35.5 µM (inconclusive)
CCCN(CCC)c1c([N+](=O)[O-])cc(C(F)(F)F)cc1[N+](=O)[O-] [TRIFLURALIN] |  |  |  | AC50 [9]: 15.8 µM (inconclusive); AC50 [8]: 14.1 µM (inconclusive)
